Experimental data taken from ChEMBL document CHEMBL1201862, “PubChem BioAssay data set” (2004).
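Test compounds were applied to cells in 96-well plates for 48 hours at 5 doses. Here, GI50 denotes the concentration required for 50% inhibition of growth.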 The source made the active and inactive calls. Rule as the data show it: active = GI50 up to about 1.1 µM and inactive = higher.

Tests used:
Assay in all cases: inhibition of tumour cell growth, NCI panel, 48 h
786-0 = test system: 786-0
HOP-18 = test system: HOP-18
HT-29 = test system: HT-29
LXFL 529 = test system: LXFL 529
HL-60 = test system: HL-60
K562 = test system: K562
SF-268 = test system: SF-268
OVCAR-8 = test system: OVCAR-8
RXF 393 = test system: RXF 393
SN12C = test system: SN12C
HCT-116 = test system: HCT-116
KM12 = test system: KM12
UO-31 = test system: UO-31
CCRF-CEM = test system: CCRF-CEM
COLO 205 = test system: COLO 205
OVCAR-5 = test system: OVCAR-5
UACC-62 = test system: UACC-62
U-251 = test system: U-251
OVCAR-3 = test system: OVCAR-3
NCI-H23 = test system: NCI-H23
RPMI-8226 = test system: RPMI-8226
SK-OV-3 = test system: SK-OV-3
SNB-19 = test system: SNB-19
SR = test system: SR
SNB-75 = test system: SNB-75
TK-10 = test system: TK-10
Malme-3M = test system: Malme-3M
OVCAR-4 = test system: OVCAR-4
DMS-273 = test system: DMS-273
M14 = test system: M14
SW-620 = test system: SW-620
HOP-92 = test system: HOP-92
SF-539 = test system: SF-539
HOP-62 = test system: HOP-62
CAKI-1 = test system: CAKI-1
HCT-15 = test system: HCT-15
MOLT-4 = test system: MOLT-4
SK-MEL-5 = test system: SK-MEL-5
SK-MEL-2 = test system: SK-MEL-2
ACHN = test system: ACHN
UACC-257 = test system: UACC-257
LOX IMVI = test system: LOX IMVI
M19-MEL = test system: M19-MEL
NCI-H460 = test system: NCI-H460
NCI-H522 = test system: NCI-H522
DLD-1 = test system: DLD-1
KM-20L2 = test system: KM-20L2
SF-295 = test system: SF-295
SNB-78 = test system: SNB-78
A549 = test system: A549
IGROV-1 = test system: IGROV-1
NCI-H226 = test system: NCI-H226
SK-MEL-28 = test system: SK-MEL-28

Compound: COc1c(CC(C)O)c2c3c(CC(C)O)c(OC)c(=O)c4c(O)cc5c(c6c(cc(O)c(c1=O)c62)OCO5)c43 (stereo not drawn) [CERCOSPORIN]
- GI50 (786-0): 2660 nM (inactive)
- GI50 (HOP-18): 2580 nM (inactive)
- GI50 (HT-29): 364 nM (active)
- GI50 (LXFL 529): 1560 nM (inactive)
- GI50 (HL-60): 968 nM (active)
- GI50 (K562): 2000 nM (inactive)
- GI50 (SF-268): 1810 nM (inactive)
- GI50 (OVCAR-8): 1740 nM (inactive)
- GI50 (RXF 393): 1270 nM (inactive)
- GI50 (SN12C): 1570 nM (inactive)
- GI50 (HCT-116): 1390 nM (inactive)
- GI50 (KM12): 1620 nM (inactive)
- GI50 (UO-31): 2140 nM (inactive)
- GI50 (CCRF-CEM): 2720 nM (inactive)
- GI50 (COLO 205): 158 nM (active)
- GI50 (OVCAR-5): 2880 nM (inactive)
- GI50 (UACC-62): 1780 nM (inactive)
- GI50 (U-251): 1720 nM (inactive)
- GI50 (OVCAR-3): 1870 nM (inactive)
- GI50 (NCI-H23): 1400 nM (inactive)
- GI50 (RPMI-8226): 2100 nM (inactive)
- GI50 (SK-OV-3): 4140 nM (inactive)
- GI50 (SNB-19): 2490 nM (inactive)
- GI50 (SR): 1370 nM (inactive)
- GI50 (SNB-75): 2380 nM (inactive)
- GI50 (TK-10): 2620 nM (inactive)
- GI50 (Malme-3M): 374 nM (active)
- GI50 (OVCAR-4): 1380 nM (inactive)
- GI50 (DMS-273): 906 nM (active)
- GI50 (M14): 1290 nM (inactive)
- GI50 (SW-620): 2100 nM (inactive)
- GI50 (HOP-92): 2300 nM (inactive)
- GI50 (SF-539): 2130 nM (inactive)
- GI50 (HOP-62): 1990 nM (inactive)
- GI50 (CAKI-1): 6010 nM (inactive)
- GI50 (HCT-15): 1560 nM
- GI50 (MOLT-4): 1750 nM (inactive)
- GI50 (SK-MEL-5): 1520 nM (inactive)
- GI50 (SK-MEL-2): 1550 nM (inactive)
- GI50 (ACHN): 1630 nM (inactive)
- GI50 (UACC-257): 1340 nM (inactive)
- GI50 (LOX IMVI): 711 nM (active)
- GI50 (M19-MEL): 664 nM (active)
- GI50 (NCI-H460): 450 nM (active)
- GI50 (NCI-H522): 1820 nM (inactive)
- GI50 (DLD-1): 1960 nM (inactive)
- GI50 (KM-20L2): 301 nM (active)
- GI50 (SF-295): 1910 nM (inactive)
- GI50 (SNB-78): 2150 nM (inactive)
- GI50 (A549): 1650 nM (inactive)
- GI50 (IGROV-1): 1690 nM (inactive)
- GI50 (NCI-H226): 2290 nM (inactive)
- GI50 (SK-MEL-28): 1860 nM (inactive)
